Assay results taken from PubChem BioAssay (NCI).
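Protocol summary: plate cells (96-well), add compound at 5 concentrations, incubate 48 h, interpolate endpoints linearly. GI50: concentration for 50% inhibition of growth. TGI denotes the concentration required for complete inhibition of growth.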

What was measured:
Test in all cases: DTP human tumour cell line panel, 48 h
[1] = test system: SR leukemia
[2] = test system: A549 NSCLC
[3] = test system: MOLT-4 leukemia
[4] = test system: HCT-15 colon
[5] = test system: SK-MEL-5 melanoma
[6] = test system: HOP-62 NSCLC
[7] = test system: RXF 393 renal
[8] = test system: SW-620 colon
[9] = test system: HS 578T breast
[10] = test system: NCI/ADR-RES ovarian

O=[N+]([O-])c1ccc2c(c1)OCCOCCOc1ccc([N+](=O)[O-])cc1OCCOCCO2
TGI [1]: > 100 µM
TGI [2]: > 100 µM
TGI [3]: > 100 µM
TGI [4]: > 100 µM
TGI [5]: > 100 µM
TGI [6]: > 100 µM
TGI [7]: > 100 µM
TGI [8]: > 100 µM

CN1NC2=NCCN=C3NN(C)C(=NCCN=C1S2)S3
TGI [1]: > 100 µM
TGI [2]: > 100 µM
TGI [3]: > 100 µM
TGI [4]: > 100 µM
TGI [5]: > 100 µM
TGI [6]: > 100 µM
TGI [7]: > 100 µM
TGI [8]: > 100 µM

COC1=C(OC)C(=O)c2cc(SC)c(=O)c(SC)cc2C1=O
TGI [1]: 22.7 µM
TGI [2]: 43.8 µM
TGI [3]: 17.4 µM
TGI [4]: > 100 µM
TGI [5]: 25.9 µM
TGI [6]: 31.2 µM
TGI [7]: 16.8 µM
TGI [8]: > 100 µM

COc1cccc2c(Nc3ccc(C(=O)NCCNCCO)cc3)cc(-c3ccccc3)nc12
GI50 [2]: > 100 µM
TGI [2]: > 100 µM
GI50 [9]: 29.3 µM
TGI [9]: > 100 µM
GI50 [4]: 12.2 µM
TGI [4]: > 100 µM
GI50 [5]: 38.6 µM
TGI [5]: > 100 µM
GI50 [6]: 35.4 µM
TGI [6]: > 100 µM
GI50 [7]: 33.1 µM
TGI [7]: 93.1 µM
GI50 [10]: > 100 µM
TGI [10]: > 100 µM
GI50 [8]: 37.7 µM
TGI [8]: > 100 µM

COC(=O)C(=O)C(C(=O)C(=O)Nc1ccc([N+](=O)[O-])cc1[N+](=O)[O-])c1nc2ccc([N+](=O)[O-])cc2[nH]c1=O (stereo unspecified)
TGI [1]: > 100 µM
TGI [2]: > 100 µM
TGI [3]: > 100 µM
TGI [4]: > 100 µM
TGI [6]: > 100 µM
TGI [7]: > 100 µM
TGI [8]: > 100 µM

CCCOP1(=O)C=C(C)C(Cl)=C(C)C1 (stereo unspecified)
TGI [1]: 61.8 µM
TGI [2]: 61.3 µM
TGI [3]: 64.9 µM
TGI [4]: 58.4 µM
TGI [5]: 55.3 µM
TGI [6]: > 100 µM
TGI [7]: 57 µM
TGI [8]: 35.5 µM

CN(OC(=O)CC(=O)c1ccccc1)C(=O)Cc1ccccc1
TGI [1]: > 100 µM
TGI [2]: > 100 µM
TGI [4]: > 100 µM
TGI [5]: > 100 µM
TGI [6]: > 100 µM
TGI [8]: > 100 µM

O=C1C(c2ccc(Cl)cc2)=[N+]([O-])c2ccccc21
TGI [1]: > 100 µM
TGI [2]: 37.7 µM
TGI [3]: > 100 µM
TGI [4]: 41.3 µM
TGI [5]: 26.6 µM
TGI [6]: 78.5 µM
TGI [7]: 23 µM
TGI [8]: 62.1 µM

COC1CCC2C(=O)CCCC2O1 (stereo unspecified)
TGI [1]: > 100 µM
TGI [2]: > 100 µM
TGI [3]: > 100 µM
TGI [4]: > 100 µM
TGI [5]: > 100 µM
TGI [6]: > 100 µM
TGI [7]: > 100 µM
TGI [8]: > 100 µM

O=NN(CCCl)C(=O)NCc1ccc[n+]([O-])c1
TGI [1]: > 100 µM
TGI [2]: > 100 µM
TGI [3]: > 100 µM
TGI [4]: > 100 µM
TGI [5]: > 100 µM
TGI [6]: > 100 µM
TGI [7]: > 100 µM
TGI [8]: > 100 µM

Cc1ccc(C2=[N+]([O-])c3ccccc3C2=O)cc1
TGI [1]: > 100 µM
TGI [2]: > 90.7 µM
TGI [3]: > 70 µM
TGI [4]: 42 µM
TGI [5]: 27.5 µM
TGI [6]: > 100 µM
TGI [7]: 26.6 µM
TGI [8]: > 55.2 µM

CC(C)SC1SCC2C(=O)N(C)C3(CC3C)C(=O)OCC(NC(=O)c3nc4ccccc4cc3O)C(=O)NC(C)C(=O)N(C)C1C(=O)N(C)C1(CC1C)C(=O)OCC(NC(=O)c1nc3ccccc3cc1O)C(=O)NC(C)C(=O)N2C (stereo unspecified)
TGI [1]: < 0.0001 µM
TGI [2]: 17 µM
TGI [3]: < 0.0001 µM
TGI [5]: < 0.0001 µM
TGI [7]: < 0.0001 µM
GI50 [10]: 0.0334 µM

O=C1CCCSCCCC(=O)CCCSCCC1
TGI [1]: > 100 µM
TGI [2]: > 100 µM
TGI [3]: > 100 µM
TGI [4]: > 100 µM
TGI [5]: > 100 µM
TGI [6]: > 100 µM
TGI [10]: > 100 µM
TGI [8]: > 100 µM

Cc1c2[nH]c3ccc(Br)cc3c2c(C)c2[nH]ccc(=O)c12
TGI [1]: 37.9 µM
TGI [2]: 25.7 µM
TGI [3]: 28 µM
TGI [4]: 30.4 µM
TGI [5]: 64.2 µM
TGI [6]: 28.6 µM
TGI [8]: 25.5 µM

Cc1ccc(C)c(-n2c(-c3ccc(Br)cc3)csc2=NC(=O)c2ccccc2F)c1
GI50 [2]: > 100 µM
TGI [2]: > 100 µM
GI50 [9]: > 100 µM
TGI [9]: > 100 µM
GI50 [4]: > 100 µM
TGI [4]: > 100 µM
GI50 [5]: 2.62 µM
TGI [5]: > 100 µM
GI50 [6]: > 100 µM
TGI [6]: > 100 µM
GI50 [7]: > 100 µM
TGI [7]: > 100 µM
GI50 [10]: > 100 µM
TGI [10]: > 100 µM
GI50 [8]: > 100 µM
TGI [8]: > 100 µM

CCCCCCC(O)C/C=C/CCCCCC/C(C(=O)OC)=C(/O)C(=O)OCC (stereo unspecified)
TGI [1]: > 100 µM
TGI [2]: > 100 µM
TGI [3]: > 100 µM
TGI [4]: > 100 µM
TGI [5]: > 100 µM
TGI [6]: > 100 µM
TGI [8]: > 100 µM

Cc1ccc(C)c(NC(=O)CC2C(=O)Nc3ccccc3S2(=O)=O)c1 (stereo unspecified)
TGI [1]: > 100 µM
TGI [2]: > 100 µM
TGI [3]: > 100 µM
TGI [4]: > 100 µM
TGI [5]: > 100 µM
TGI [7]: 49.6 µM
TGI [8]: > 100 µM

CC(C)(C)C(=O)Nc1ccccc1Br
TGI [2]: > 100 µM
TGI [3]: > 100 µM
TGI [4]: > 100 µM
TGI [5]: > 100 µM
TGI [6]: > 100 µM
TGI [7]: > 100 µM
TGI [8]: > 100 µM
